Laboratory results taken from ChEMBL document CHEMBL2007661, “Compounds: GSK PKIS; Assays: UNC Frye lab” (2012).
Values joined by “and” are separate entries in the source; they are usually repeats but may differ in a detail not shown here. Identical values can stand only once.

Assays:
[1] = molecular target: T1, Inhibitor of nuclear factor kappa-B kinase subunit beta (Homo sapiens) (UniProt O14920); conditions: at 1 µM
T1 sequence (whole entry): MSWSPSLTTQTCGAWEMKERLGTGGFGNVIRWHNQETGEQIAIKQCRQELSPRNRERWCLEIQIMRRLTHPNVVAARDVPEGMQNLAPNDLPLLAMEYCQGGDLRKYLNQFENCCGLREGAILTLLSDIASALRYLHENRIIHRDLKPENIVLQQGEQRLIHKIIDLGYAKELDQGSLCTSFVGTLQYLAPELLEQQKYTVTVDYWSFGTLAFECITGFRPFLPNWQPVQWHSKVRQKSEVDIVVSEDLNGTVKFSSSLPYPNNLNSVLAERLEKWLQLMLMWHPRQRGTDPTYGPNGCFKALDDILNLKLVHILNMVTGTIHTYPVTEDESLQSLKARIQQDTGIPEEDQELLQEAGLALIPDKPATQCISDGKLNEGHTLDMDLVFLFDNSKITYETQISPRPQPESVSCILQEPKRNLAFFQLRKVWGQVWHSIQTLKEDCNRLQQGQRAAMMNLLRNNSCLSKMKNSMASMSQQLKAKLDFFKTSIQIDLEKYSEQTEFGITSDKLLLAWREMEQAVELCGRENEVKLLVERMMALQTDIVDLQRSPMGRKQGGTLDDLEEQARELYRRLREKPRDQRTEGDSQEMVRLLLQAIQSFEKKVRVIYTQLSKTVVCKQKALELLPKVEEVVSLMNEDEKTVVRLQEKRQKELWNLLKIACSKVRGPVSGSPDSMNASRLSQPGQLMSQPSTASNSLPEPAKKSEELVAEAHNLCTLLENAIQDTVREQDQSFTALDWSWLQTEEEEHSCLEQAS

[2] = molecular target: T2, Tyrosine-protein kinase Mer (Homo sapiens) (UniProt Q12866); conditions: at 10 µM
T2 sequence (whole entry): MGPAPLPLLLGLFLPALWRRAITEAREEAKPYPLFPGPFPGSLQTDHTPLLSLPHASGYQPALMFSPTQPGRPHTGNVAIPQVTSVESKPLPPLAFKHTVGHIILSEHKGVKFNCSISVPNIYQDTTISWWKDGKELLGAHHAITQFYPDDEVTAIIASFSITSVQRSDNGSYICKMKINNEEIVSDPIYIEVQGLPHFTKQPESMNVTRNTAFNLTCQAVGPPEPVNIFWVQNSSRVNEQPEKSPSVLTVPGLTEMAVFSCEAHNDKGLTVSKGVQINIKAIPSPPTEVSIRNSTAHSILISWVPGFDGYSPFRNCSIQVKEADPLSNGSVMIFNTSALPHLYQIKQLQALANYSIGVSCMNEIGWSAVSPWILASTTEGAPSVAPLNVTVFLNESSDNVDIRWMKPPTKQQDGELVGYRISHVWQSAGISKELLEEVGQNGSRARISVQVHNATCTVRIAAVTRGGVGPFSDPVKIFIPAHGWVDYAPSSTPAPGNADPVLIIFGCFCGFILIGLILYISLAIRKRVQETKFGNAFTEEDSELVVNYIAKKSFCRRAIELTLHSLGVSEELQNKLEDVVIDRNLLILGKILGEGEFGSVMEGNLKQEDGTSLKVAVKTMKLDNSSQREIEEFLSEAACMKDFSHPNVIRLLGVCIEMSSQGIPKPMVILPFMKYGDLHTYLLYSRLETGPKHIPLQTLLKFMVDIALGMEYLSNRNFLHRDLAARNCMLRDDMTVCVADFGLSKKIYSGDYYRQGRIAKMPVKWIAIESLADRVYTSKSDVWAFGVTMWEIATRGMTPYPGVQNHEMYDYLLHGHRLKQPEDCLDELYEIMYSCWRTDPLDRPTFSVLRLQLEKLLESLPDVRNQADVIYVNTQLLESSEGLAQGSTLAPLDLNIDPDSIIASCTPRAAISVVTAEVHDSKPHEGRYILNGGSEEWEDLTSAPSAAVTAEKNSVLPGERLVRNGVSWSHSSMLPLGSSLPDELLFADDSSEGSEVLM

[3] = molecular target: T3, Serine/threonine-protein kinase TBK1 (Homo sapiens) (UniProt Q9UHD2); conditions: at 1 µM
T3 sequence (whole entry): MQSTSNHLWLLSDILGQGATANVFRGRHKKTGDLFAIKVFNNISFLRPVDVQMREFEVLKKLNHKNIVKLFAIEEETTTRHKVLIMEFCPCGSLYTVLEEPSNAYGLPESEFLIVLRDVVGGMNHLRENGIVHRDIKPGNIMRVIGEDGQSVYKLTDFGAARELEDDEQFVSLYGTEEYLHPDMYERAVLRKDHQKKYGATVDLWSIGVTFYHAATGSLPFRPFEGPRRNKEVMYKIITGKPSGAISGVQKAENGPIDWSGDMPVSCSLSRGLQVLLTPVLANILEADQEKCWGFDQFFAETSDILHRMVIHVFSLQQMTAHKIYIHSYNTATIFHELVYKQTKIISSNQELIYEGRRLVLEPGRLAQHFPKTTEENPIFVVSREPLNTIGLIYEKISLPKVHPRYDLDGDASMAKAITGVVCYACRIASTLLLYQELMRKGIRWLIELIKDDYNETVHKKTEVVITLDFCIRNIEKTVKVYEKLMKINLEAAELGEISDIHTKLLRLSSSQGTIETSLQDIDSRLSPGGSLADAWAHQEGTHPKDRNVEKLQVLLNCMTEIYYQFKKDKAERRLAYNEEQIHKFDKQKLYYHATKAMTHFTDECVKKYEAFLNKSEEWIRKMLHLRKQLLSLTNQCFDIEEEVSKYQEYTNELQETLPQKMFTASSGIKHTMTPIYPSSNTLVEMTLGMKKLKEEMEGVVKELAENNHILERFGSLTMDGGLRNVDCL

Row | SMILES | inhibition [1] | inhibition [2] [%] | inhibition [3]
1 | CS(=O)(=O)CCNCc1ccc(-c2ccc3ncnc(Nc4ccc(OCc5cccc(F)c5)c(C(F)(F)F)c4)c3c2)o1 | 2% and -2% | 50 | 3% and 1%
2 | NS(=O)(=O)c1cccc(Nc2cc(-c3ccc(F)cc3)n[nH]2)c1 | -2% | 0 | 23% and 21%
3 | COc1ccccc1-c1cc(/C=C2\C(=O)Nc3ncc(Br)cc32)cc(Br)c1O | -4% and -2% | -2 | 15% and 7%
4 | Fc1ccc(-c2nc3n(c2-c2ccncc2)CCS3)cc1 | -2% and 0% | 73 | -4% and 3%
5 | COC(=O)c1cncc(/C=C/c2c(C)cc(O)cc2C)c1 | -4% and -5% | -6 | -1% and 2%
6 | CCn1c(-c2nonc2N)nc2ccc(F)cc21 | 5% and 1% | -4 | 2% and 1%
7 | Cc1ccc2c(c1)/C(=N/Nc1ccc(S(N)(=O)=O)cc1)C(=O)N2 | 4% and 10% | 66 | -2% and 3%
8 | NS(=O)(=O)c1ccc(N/N=C2\C(=O)Nc3ccc(C(=O)NCCc4c[nH]cn4)cc32)cc1 | -4% and -2% | -1 | 32% and 29%
9 | COc1cc2ncn(-c3cc(O[C@@H](C)c4ccccc4Cl)c(C(N)=O)s3)c2cc1OC | 1% | 69 | 54% and 57%
10 | CS(=O)(=O)CCNCc1ccc(-c2ccc3ncnc(Nc4ccc(OCc5ccccc5)c(Br)c4)c3c2)o1 | -1% and -2% | 14 | 0% and 1%
11 | Cn1c(-c2nonc2N)nc2cnccc21 | -4% and -2% | -9 | -4% and -2%
12 | Nc1nccc(-c2c(-c3ccc(F)cc3)ncn2CCCN2CCOCC2)n1 | -5% and -8% | 4 | 0% and 1%
13 | Nc1nccc(-c2c(-c3ccc(F)cc3)ncn2C2CCC(O)CC2)n1 (stereo not drawn) | -2% and -3% | 29 | 0% and -2%
14 | Nc1nonc1-c1nc2cnccc2n1C1CCCCC1 | -7% | 1 | 36% and 37%
15 | CN1CCN(C(=O)c2ccc(NC(=O)Nc3ccc(N(C)c4ccnc(Nc5ccc(CS(C)(=O)=O)cc5)n4)cc3)cc2)CC1 | -5% and -8% | 0 | 14% and 13%
16 | COc1cc(Nc2nccc(Nc3ccc4c(C)n[nH]c4c3)n2)cc(OC)c1OC | -2% | -5 | 33% and 30%

Second part, the compound after the results:

Row | inhibition [1] | inhibition [2] [%] | inhibition [3] | SMILES
17 | -2% and -3% | -10 | -3% and -2% | Fc1cccc(COc2ccc(Nc3ncnc4sc(-c5cccs5)cc34)cc2Cl)c1
18 | 2% and 1% | 83 | 56% and 50% | COc1cc2ncn(-c3cc(OCc4ccccc4Cl)c(C(N)=O)s3)c2cc1OC
19 | -2% and 0% | 78 | -4% and -3% | N#Cc1c(NC(=O)c2cccc3ccccc23)sc2c1CCCC2
20 | -3% and -1% | 1 | 5% and 7% | Nc1nc(-c2cccc(Cl)c2)c(-c2ccc3ncccc3n2)s1
21 | 5% and -2% | -4 | -1% and 0% | Clc1ccc(CNc2nccc(-c3cnn4ncccc34)n2)cc1
22 | 0% and -4% | 4 | 16% and 10% | COc1cc(N2CCN(C(C)C)CC2)ccc1Nc1nc(Nc2ccc(F)cc2C(N)=O)c2cc[nH]c2n1
23 | -6% and -4% | -7 | 0% and -2% | CCc1cccc(CC)c1/C=C/c1cncc(C(=O)NC)c1
24 | 1% and 0% | 45 | 0% and 3% | NC(=O)c1sc(-n2cnc3ccccc32)cc1OCc1ccccc1Br
25 | 1% and 2% | 79 | 13% | CCS(=O)(=O)c1ccc(OC)c(Nc2ncc(-c3cccc(-c4ccccc4F)c3)o2)c1
26 | -8% and -3% | 27 | 19% and 18% | O=C1NC(=O)C(c2cccc(Cl)c2)=C1Nc1ccc(Cl)c(C(=O)O)c1
